Numbering of substitutions follows the chain as printed. Where two headings read alike, the source gives them in different places.
Experiments:
Assay in all cases: Fluo-4 Ca2+ influx through cAMP-gated CNG channel in stable HEK293 line
TAAR13c [1] = target: T1, TAAR13c (Danio rerio, UniProt Q5QNP2, W296F); format: cell-based, Homo sapiens
T1 sequence (Q5QNP2 1-341 W296F): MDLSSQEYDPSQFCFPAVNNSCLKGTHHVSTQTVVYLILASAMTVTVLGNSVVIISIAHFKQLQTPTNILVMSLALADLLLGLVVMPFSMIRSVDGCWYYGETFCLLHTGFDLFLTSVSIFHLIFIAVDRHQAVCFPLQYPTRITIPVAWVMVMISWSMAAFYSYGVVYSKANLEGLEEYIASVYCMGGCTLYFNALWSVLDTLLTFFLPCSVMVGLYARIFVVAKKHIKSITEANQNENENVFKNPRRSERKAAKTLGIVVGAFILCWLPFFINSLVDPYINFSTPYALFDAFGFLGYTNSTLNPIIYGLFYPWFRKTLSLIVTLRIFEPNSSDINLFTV
Description: (§1) Fluo-4 Ca2+ influx through cAMP-gated CNG channel in stable HEK293 line on TAAR13c

TAAR13c [2] = target: T2, TAAR13c (Danio rerio, UniProt Q5QNP2, D78E); format: cell-based
T2 sequence (Q5QNP2 1-341 D78E): T1 sequence (Q5QNP2 1-341 W296F) with D78E, F296W
Description: as §1

TAAR13c [3] = target: T3, TAAR13c (Danio rerio, UniProt Q5QNP2, D279A); format: cell-based
T3 sequence (Q5QNP2 1-341 D279A): T1 sequence (Q5QNP2 1-341 W296F) with D279A, F296W
Description: as §1

TAAR13c [4] = target: T4, TAAR13c (Danio rerio, UniProt Q5QNP2); format: cell-based
T4 sequence (Q5QNP2 1-341): T1 sequence (Q5QNP2 1-341 W296F) with F296W
Description: as §1

TAAR13c [5] = target: T5, TAAR13c (Danio rerio, UniProt Q5QNP2, D279N); format: cell-based
T5 sequence (Q5QNP2 1-341 D279N): T1 sequence (Q5QNP2 1-341 W296F) with D279N, F296W
Description: as §1

TAAR13c [6] = target: T6, TAAR13c (Danio rerio, UniProt Q5QNP2, D279E); format: cell-based
T6 sequence (Q5QNP2 1-341 D279E): T1 sequence (Q5QNP2 1-341 W296F) with D279E, F296W
Description: as §1

TAAR13c [7] = target: T7, TAAR13c (Danio rerio, UniProt Q5QNP2, W296Y); format: cell-based
T7 sequence (Q5QNP2 1-341 W296Y): T1 sequence (Q5QNP2 1-341 W296F) with F296Y
Description: as §1

TAAR13c [8] = target: T8, TAAR13c (Danio rerio, UniProt Q5QNP2, W296G); format: cell-based; conditions: read-out: EC50 (μM, mean±SEM) / cad
T8 sequence (Q5QNP2 1-341 W296G): T1 sequence (Q5QNP2 1-341 W296F) with F296G
Description: as §1

[9] = read-out: EC50 (μM, mean±SEM) / put
[10] = read-out: EC50 (μM, mean±SEM) / cad

Row | SMILES | EC50 (TAAR13c [1]; [9]) | EC50 (TAAR13c [2]; [9]) | EC50 (TAAR13c [3]; [9]) | EC50 (TAAR13c [4]; [9]) | EC50 (TAAR13c [5]; [9]) | EC50 (TAAR13c [6]; [9]) | EC50 (TAAR13c [7]; [9]) | EC50 (TAAR13c [1]; [10]) | EC50 (TAAR13c [2]; [10]) | EC50 (TAAR13c [3]; [10]) | EC50 (TAAR13c [4]; [10]) | EC50 (TAAR13c [5]; [10]) | EC50 (TAAR13c [6]; [10]) | EC50 (TAAR13c [8]) | EC50 (TAAR13c [7]; [10])
1 | NCCCCN [putrescine] | > 1000 µM | > 1000 µM | 31 ± 13 µM | > 1000 µM | 7.3 ± 3.6 µM | 10 ± 4 µM | > 1000 µM |  |  |  |  |  |  |  | 
2 | NCCCCCN [cadaverine] |  |  |  |  |  |  |  | 42 ± 6 µM | 64 ± 28 µM | 2.1 ± 1 µM | 15.2 ± 2.2 µM | 1.1 ± 0.8 µM | 0.72 ± 0.24 µM | 55 ± 48 µM | 28 ± 8 µM

Reference: PMC4914996, “Elimination of a ligand gating site generates a supersensitive olfactory receptor” (Scientific Reports, 2016)
